Measured values from ChEMBL document CHEMBL1132239, “Tricyclic farnesyl protein transferase inhibitors: crystallographic and calorimetric studies of structure-activity relationships” (J Med Chem, 1999).

Experiments:
[1] = Dissociation constant of the Compound; format: physicochemical
[2] = biological target: Protein farnesyltransferase (Homo sapiens, UniProt P49354+P49356); test: Inhibition of Farnesyl protein transferase; format: protein-complex assay

Kd [1] [µM]	IC50 [2] [µM]	Compound
0.0051	0.0039	O=C(Cc1cc[n+]([O-])cc1)N1CCC(=C2c3ncc(Br)cc3CCc3cc(Cl)cc(Br)c32)CC1
0.0175	0.052	O=C(Cc1cc[n+]([O-])cc1)N1CCC(=C2c3ccc(Cl)cc3CCc3cc(Br)cnc32)CC1

The remaining lines, values behind:

Compound	Kd [1] [µM]	IC50 [2] [µM]
O=C(Cc1cc[n+]([O-])cc1)N1CCC(=C2c3ccc(Cl)cc3CCc3cccnc32)CC1	0.24	
O=C(Cc1cc[n+]([O-])cc1)N1CCN([C@H]2c3ccc(Cl)cc3CCc3cc(Br)cnc32)CC1	0.021	
O=C(Cc1cc[n+]([O-])cc1)N1CCN([C@@H]2c3ccc(Cl)cc3CCc3cc(Br)cnc32)CC1	0.032	
